Here are results for seven molecules from patent US10011868B2, “Reactivity-dependent and interaction-dependent PCR” (priority 2009, dated 2018).

Read-outs that look alike come from different tables or passages of the source. Numbered stars: 1 amine (or outer) side, 2 acyl side, 3 side chain; on linkers, the order of the positions; unused ones are H or OH. Peptide text beside a SMILES is read from it. CO = O=C([*:1])[*:2]

The target of data set [1] is carbonic anhydrase II (CA) (Bos taurus, UniProt P00921). The note with it: cited from earlier work.
Chain of carbonic anhydrase II (CA) (P00921 whole entry): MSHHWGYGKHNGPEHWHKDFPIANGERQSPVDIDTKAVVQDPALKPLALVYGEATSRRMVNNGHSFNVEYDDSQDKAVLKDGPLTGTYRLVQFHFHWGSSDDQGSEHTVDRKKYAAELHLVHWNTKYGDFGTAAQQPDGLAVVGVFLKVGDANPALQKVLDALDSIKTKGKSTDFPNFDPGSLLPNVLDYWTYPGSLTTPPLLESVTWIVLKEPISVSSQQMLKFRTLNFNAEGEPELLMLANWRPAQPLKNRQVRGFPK
Data set [2] deals with T1, carbonic anhydrase (Bos taurus, UniProt P00921). As to the kind of experiment: ID-PCR model selection, ligand library x target library in one solution (FIG. 22). The format is binding, bovine. The settings on record: DNA-linked ligand; relative to control lacking proteins; 261 ligand x 259 target sequences. How it is done: (§1) Finally, we tested the ability of ID-PCR to simultaneously evaluate all possible combinations of multiple ligands and multiple targets in a single solution. […] The negative control ligand and target were conjugated to libraries of 256 different sequence tags. The resulting solution therefore contained equimolar quantities of each of 261 ligand sequences and each of 259 target sequences, collectively representing 67,599 possible ligand-target sequence combinations. A control sample was prepared identically except using DNA not conjugated to any protein targets. Both samples were subjected to ID-PCR followed by high-throughput DNA sequencing.
T1 sequence (P00921 whole entry): as above
(§2) A control primer extension reaction was also performed using the same pool of ligand strands, but with a pool of target strands lacking conjugated proteins (1, 1i, 1j, 60 pM each and 1k, 9.8 nM). Adapter sequences required for Illumina sequencing, as well as barcodes identifying the input and selection experiments, were installed by PCR with either Primer C (input control) or Primer D (selection) and Primer E. The appropriate cycle number for each reaction was determined by qPCR evaluation, such that preparative PCR reactions (50 μL total volume) were stopped in the exponential amplification phase in order to minimize dynamic compression during PCR. […]

Data set [3] addresses T1, carbonic anhydrase. As to the kind of experiment: Carbonic anhydrase enzymatic activity inhibition, 4-nitrophenyl acetate substrate (FIG. 25a,b). The format is biochemical, bovine. The settings on record: 37° C.; read-out: Ki for CA.
In data set [4] the target is T2, streptavidin (Streptomyces avidinii, UniProt P22629).
T2 construct: 5'-carboxylate ssDNA oligonucleotide 1a (Cy3-labelled), chemically coupled via NHS ester; purchased New England Biolabs
T2 sequence (P22629 25-183): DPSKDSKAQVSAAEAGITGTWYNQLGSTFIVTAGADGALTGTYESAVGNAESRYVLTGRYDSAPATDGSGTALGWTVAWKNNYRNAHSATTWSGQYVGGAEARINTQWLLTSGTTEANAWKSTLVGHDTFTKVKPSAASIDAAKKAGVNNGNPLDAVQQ
As to the kind of experiment: ID-PCR model selection, ligand library x target library in one solution (FIG. 22). The format is binding. The note with it: DNA-linked ligand; relative to control lacking proteins; 261 ligand x 259 target sequences. On the procedure:
as §1, §2

The target in the next data set is streptavidin (SA) (Streptomyces avidinii, UniProt P22629). The note with it: free ligand and streptavidin; cited from earlier work.
Chain of streptavidin (SA) (P22629 25-183): as above
The target in data set [5] is T3, trypsin (Bos taurus, UniProt P00760).
T3 sequence (P00760 24-246): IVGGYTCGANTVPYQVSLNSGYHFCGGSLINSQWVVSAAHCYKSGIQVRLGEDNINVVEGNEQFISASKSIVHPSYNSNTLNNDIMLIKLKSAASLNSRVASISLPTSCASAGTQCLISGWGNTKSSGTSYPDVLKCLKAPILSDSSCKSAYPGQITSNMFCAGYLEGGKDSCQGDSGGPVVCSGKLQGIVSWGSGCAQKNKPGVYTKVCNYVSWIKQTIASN
The note with it: trypsin and antipain; cited from earlier work.

Data set [6] addresses T3, trypsin. As to the kind of experiment: Trypsin inhibition, fluorogenic substrate Z-Arg-AMC (FIG. 25d). The format is biochemical, bovine. How it is done:
Conditions were adopted from a previously reported protocol.^17 Trypsin (200 fmol) was diluted in 90 μL PBS and was incubated with various concentrations of antipain, a known inhibitor of tryptic proteolysis, or 2e-antipain. The solution was equilibrated at room temperature for 10 minutes and at 35° C. for 5 minutes before addition of the fluorogenic proteolytic substrate Z-Arg-AMC (Bachem) (10 nmol in 10 μL 50% DMSO) (final volume=100 μL).
Equation Used to Fit Ki from Inhibitory Curves (FIGS. 25a, b, d).
The Ki was determined by fitting the following equation to the plot of normalized activity vs. inhibitor concentration: Vo=c+d(([E]tot+[i]tot+Ki)−sqrt((−[E]tot−[I]tot−Ki)^2−4*[E]tot*[I]tot))/(2*[E]tot), where Vo is initial reaction velocity, [E]tot is total enzyme concentration, [I]rot is total inhibitor concentration; c and d are variable parameters for the maximum Vo and for the difference between the minimum and maximum Vo, respectively.

Data set [7] deals with 68-nt DNA aptamer that binds daunomycin. The settings on record: DNA aptamer and daunomycin; cited from earlier work.
The target of a further data set is T4, streptavidin (1a-SA) (Streptomyces avidinii, UniProt P22629).
T4 construct: 5'-carboxylate ssDNA oligonucleotide 1a (Cy3-labelled), chemically coupled via NHS ester; purchased New England Biolabs
T4 sequence (P22629 25-183): as the sequence (P22629 25-183) above
The data set can be described thus: ID-PCR on single target-ligand pair, qPCR threshold cycle (FIG. 20b). The format is binding. The settings on record: with 1a-SA, Klenow extension and qPCR. For orientation: Quantitative PCR measures a nucleic acid by following its amplification.

Data set [8] has as its target T2, streptavidin. The data set can be described thus: Gel shift of 2b-desthiobiotin/streptavidin complex (FIG. 25c). The format is binding. The note with it: duplex 10 nM, read-out: apparent Kd for streptavidin. On the procedure:
The DNA-ligand conjugate 2b-desthiobiotin was hybridized to a complementary 20-mer carrying a Cy3 label at the 3′-end. The resulting duplex (10 nM) was incubated with increasing concentrations of streptavidin in binding buffer (145 mM NaCl, 10 mM Tris/HCl, 10 mM MgCl2, 7 mM Na2PO4, 1.9 mM KCl, 1 mM dithiothreitol, pH 7.4), for 1 h and analyzed on a 20% TBE polyacrylamide gel. The appearance of a higher molecular weight band indicated formation of a streptavidin-2b-desthiobiotin complex. The apparent Kd was determined from the streptavidin concentration for which the bands corresponding to free DNA and to the complex were of approximately equal intensity.
In general terms: Mobility shift assays separate free from complexed probe on a gel.

Procedure for streptavidin (1a-SA): We investigated whether binding between a small molecule and a protein could replace a covalent linkage in a DNA hairpin and support extension and PCR. […] The target and ligand strands shared a 6-nt complementary region.
An extension mixture consisting of 10×NEB Buffer 2 (2 μL), dNTPs (660 pmol each in 2 μL water), and the target strand (200 fmol in 9 μL PBS) was incubated at 37° C. for 5 minutes. The appropriate ligand strand (200 fmol in 2 μL water) was added and the reaction mixture was incubated at 37° C. for 15 minutes. Klenow fragment exo^− (2.5 U in 5 μL of 1×NEB Buffer 2, New England Biolabs) was added. The primer extension reaction (final volume=20 μL) was incubated at 37° C. for 15 minutes. The polymerase was inactivated by heating to 75° C. for 20 minutes.
For each 25 μL qPCR reaction, 12.5 μL of 2×SYBR Green iQ Supermix (Bio-Rad) was combined with 1 μL of 10 μM Primer A, 1 μL of 10 μM Primer B, and 9.5 μL Milli Q H2O. […] Quantitative PCR was performed using a CFX-96 Real-Time System with a C1000 Thermal Cycler (Bio-Rad). […]
All primer extension and qPCR reactions were performed as described above, except that free ligand (200 pmol in 2 μL 10% DMSO) or DMSO (2 μL of 10% DMSO) was added when appropriate. […] Unless otherwise noted, PCR products were analyzed by PAGE on 10% TBE gels at 200 V for 25 minutes staining with ethidium bromide and imaging on a Chemilmager (AlphaInnotech). […]

In general, Ki refers to the equilibrium dissociation constant of an inhibitor or competing ligand from its target. Regarding Gly-Leu-CBS [GLCBS], the Ki is 9 nM in data set [1] (FIG. 20 legend) and 470 nM on carbonic anhydrase [3]. Besides, the Kd in data set [1] (text b276) was 9 nM. In addition, the “Enrichment Factor” value at carbonic anhydrase [2] is 225.

“2s-GLCBS: GLCBS-DNA conjugate (SEQ 78) (DNA TGGATCGTGATGACTGTCCCGACAAGGATCCGTATCTCACT; DNA, backbone and methylation of C not given here; GLCBS conjugated at 3' end, further chemistry not fully specified)”: the Ki with carbonic anhydrase [3] worked out at 380 nM.

Consider `C[C@@H]1NC(=O)N[C@@H]1CCCCCC(=O)O` [desthiobiotin], for which, on streptavidin [4], the “Enrichment Factor” value is on record as 3078. The Kd on streptavidin (SA) was 2 nM.

Regarding `CC(C)[C@H](NC(=O)[C@H](CCCNC(=N)N)NC(=O)N[C@@H](Cc1ccccc1)C(=O)O)C(=O)N[C@H](C=O)CCCNC(=N)N` [antipain] ({Phe-CO}-Arg-Val-Arg-aldehyde), the figures for the inhibition constant (Ki) on trypsin [5] and on trypsin [6] were 100 nM and 39.5 nM, respectively.

Turning to `O=C(O)CCCC[C@@H]1SC[C@@H]2NC(=O)N[C@@H]21` [biotin], at streptavidin [4], the “Enrichment Factor” value amounted to 860.

Consider `COc1cccc2c1C(=O)c1c(O)c3c(c(O)c1C2=O)C[C@@](O)(C(C)=O)C[C@@H]3O[C@H]1C[C@H](N)[C@H](O)[C@H](C)O1` [daunomycin], for which the Kd in data set [7] was 272 nM.

As to “2b-desthiobiotin: ligand strand 2 conjugated to desthiobiotin (SEQ 57) (TGGATCGTGATGACTGTCCCGACAAGCATACGTATCTCACT; desthiobiotin conjugated, position not given here)”, the “amplification efficiency in ID-PCR” value with streptavidin (1a-SA) is listed as “comparable to that of 2a-biotin”. Moreover, the Kd with streptavidin [8] turned out to be 8 nM.
